Consider 3 compounds from ChEMBL document CHEMBL1201862, “PubChem BioAssay data set” (2004).

Each structure is given as a SMILES string. The source made the active and inactive calls.

The test system of one assay is CHO-K1. Description: Counterscreen for antagonists of the orexin 1 receptor (OX1R; HCRTR1): Homogeneous time resolved fluorescence (HTRF)-based cell-based dose response assay to identify antagonists of the parental CHO-K1 cell line. [Related pubchem assays (depositor defined):AID434989, AID435008, AID463079, AID485270, AID492963, AID492964, AID492965, AID493232, AID504699, AID504701]. The assay is classed as functional. To be noted: Cricetulus griseus. Background: Counterscreens check selectivity or assay interference.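 Note: potency for inhibition of ATP-stimulated IP1 production as antagonists.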

For assay [1], the target named is T1, Orexin/Hypocretin receptor type 1 (Homo sapiens, UniProt O43613). In words: Fluorescence-based cell-based high throughput dose response assay for antagonists of the orexin 1 receptor (OX1R; HCRTR1). [Related pubchem assays (depositor defined):AID434989, AID435008, AID463079, AID485270, AID492963, AID492964, AID492965, AID493232, AID504717, AID504718]. The class given is functional.
T1 sequence (O43613 whole entry): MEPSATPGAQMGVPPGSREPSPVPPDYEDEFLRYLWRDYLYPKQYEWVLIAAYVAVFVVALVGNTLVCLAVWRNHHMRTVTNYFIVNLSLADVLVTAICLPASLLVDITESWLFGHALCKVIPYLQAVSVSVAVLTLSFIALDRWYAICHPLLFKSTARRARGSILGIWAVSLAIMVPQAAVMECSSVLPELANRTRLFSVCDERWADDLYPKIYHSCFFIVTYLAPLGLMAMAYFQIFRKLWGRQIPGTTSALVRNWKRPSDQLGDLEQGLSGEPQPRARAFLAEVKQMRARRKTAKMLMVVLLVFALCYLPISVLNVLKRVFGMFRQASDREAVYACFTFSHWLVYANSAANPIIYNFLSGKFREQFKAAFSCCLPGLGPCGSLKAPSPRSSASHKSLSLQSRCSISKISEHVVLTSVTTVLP

For another assay, the system named is H9c2. Description: cells. The assay is classed as functional, cell-based. To be noted: Rattus norvegicus, H9c2, Myocardium.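 Note: confirmatory concentration-response retest of ultra-high-throughput screening hits for modulation of myocardial damage; cell death induced by hydrogen peroxide oxidative stress; compound pretreatment for 60 min then peroxide exposure for 2 h; potency is for protecting the cells against peroxide damage rather than for killing them.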
For assay [2], the target named is T2, Orexin receptor type 2 (Homo sapiens, UniProt O43614). In words: Counterscreen assay for antagonists of the orexin 1 receptor (OX1R; HCRTR1): Fluorescence-based cell-based dose response assay for antagonists of the orexin 2 receptor (OX2R; HCRTR2), run by assay provider. The assay is classed as functional.
T2 sequence (O43614 whole entry): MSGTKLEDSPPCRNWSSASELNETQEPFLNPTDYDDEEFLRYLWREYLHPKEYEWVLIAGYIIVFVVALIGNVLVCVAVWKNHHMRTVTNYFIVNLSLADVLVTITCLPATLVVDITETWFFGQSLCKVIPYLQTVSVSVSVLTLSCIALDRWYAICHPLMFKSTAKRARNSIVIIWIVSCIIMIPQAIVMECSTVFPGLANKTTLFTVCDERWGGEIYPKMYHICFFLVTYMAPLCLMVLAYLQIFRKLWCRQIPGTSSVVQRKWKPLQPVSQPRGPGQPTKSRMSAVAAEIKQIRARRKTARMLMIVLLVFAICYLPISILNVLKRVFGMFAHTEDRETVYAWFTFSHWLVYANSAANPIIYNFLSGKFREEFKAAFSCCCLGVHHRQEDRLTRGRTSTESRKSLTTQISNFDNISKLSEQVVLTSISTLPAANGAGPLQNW
Assay [3] can be described thus: Counterscreen for antagonists of the orexin 1 receptor (OX1R; HCRTR1): Fluorescence-based cell-based high throughput dose response assay to identify antagonists of the parental CHO cell line. [Related pubchem assays (depositor defined):AID434989, AID435008, AID463079, AID485270, AID492963, AID492964, AID492965, AID493232, AID504699, AID504701]. The assay is classed as functional.

The target in assay [4] is T1, Orexin/Hypocretin receptor type 1. In words: Homogeneous Time Resolved Fluorescence (HTRF)-based cell-based high throughput dose response assay for antagonists of the orexin 1 receptor (OX1R; HCRTR1). [Related pubchem assays (depositor defined):AID434989, AID435008, AID463079, AID485270, AID492963, AID492964, AID492965, AID493232, AID504717, AID504718]. The class given is functional. A general note: TR-FRET usually uses a lanthanide donor and a delayed reading to cut background.

Assay [5] concerns the target T2, Orexin receptor type 2. In words: Counterscreen assay for antagonists of the orexin 1 receptor (OX1R; HCRTR1): Homogeneous Time Resolved Fluorescence (HTRF)-based cell-based dose response assay for antagonists of the orexin 2 receptor (OX2R; HCRTR2), run by assay provider. The class given is functional.
Assay [6] is described as follows: HEp-2 cell cytotoxicity, dose response, cytotoxicity control for RSV inhibitor project, HTS (AID 2410). The class given is functional. To be noted: human respiratory syncytial virus.
Assay [7] deals with Candida albicans. In words: single-agent growth inhibition of C. albicans, dose response, counter-screen for antifungal drug resistance project, C. albicans CaCi-2, dry powder (AID 488802). The class given is functional, organism-based.
In assay [8] the test system is Candida albicans. Description: growth inhibition of resistant C. albicans, dose response, CaCi-8, fluconazole, Alamar Blue, dry powder (AID 488807). The assay is classed as functional, organism-based. Background: The colour change of resazurin is a common sign of viable cells or microbes.
A further assay has as its system NIH3T3. In words: cytotoxicity in NIH-3T3 fibroblasts, dose response, cytotoxicity control for antifungal drug resistance project, cell-based, Alamar Blue, fluconazole, dry powder (AID 488809). The assay is classed as functional. To be noted: Mus musculus.
Assay [9] addresses T3, Sentrin-specific protease 8 (Homo sapiens, UniProt Q96LD8).
T3 sequence (Q96LD8 whole entry): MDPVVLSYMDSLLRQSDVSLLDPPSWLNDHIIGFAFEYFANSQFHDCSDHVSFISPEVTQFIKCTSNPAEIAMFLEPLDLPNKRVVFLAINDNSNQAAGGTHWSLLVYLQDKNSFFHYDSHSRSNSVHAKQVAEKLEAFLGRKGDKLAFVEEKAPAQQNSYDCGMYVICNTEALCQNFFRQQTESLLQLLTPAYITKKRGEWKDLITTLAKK
In words: SENP8 protease inhibitors, SAR follow-up, biochemical, luminescence, set 2 (AID 588601). The assay is classed as functional.

Assay [10] has as its target T4, Sentrin-specific protease 7 (Homo sapiens, UniProt Q9BQF6).
T4 sequence (Q9BQF6 whole entry): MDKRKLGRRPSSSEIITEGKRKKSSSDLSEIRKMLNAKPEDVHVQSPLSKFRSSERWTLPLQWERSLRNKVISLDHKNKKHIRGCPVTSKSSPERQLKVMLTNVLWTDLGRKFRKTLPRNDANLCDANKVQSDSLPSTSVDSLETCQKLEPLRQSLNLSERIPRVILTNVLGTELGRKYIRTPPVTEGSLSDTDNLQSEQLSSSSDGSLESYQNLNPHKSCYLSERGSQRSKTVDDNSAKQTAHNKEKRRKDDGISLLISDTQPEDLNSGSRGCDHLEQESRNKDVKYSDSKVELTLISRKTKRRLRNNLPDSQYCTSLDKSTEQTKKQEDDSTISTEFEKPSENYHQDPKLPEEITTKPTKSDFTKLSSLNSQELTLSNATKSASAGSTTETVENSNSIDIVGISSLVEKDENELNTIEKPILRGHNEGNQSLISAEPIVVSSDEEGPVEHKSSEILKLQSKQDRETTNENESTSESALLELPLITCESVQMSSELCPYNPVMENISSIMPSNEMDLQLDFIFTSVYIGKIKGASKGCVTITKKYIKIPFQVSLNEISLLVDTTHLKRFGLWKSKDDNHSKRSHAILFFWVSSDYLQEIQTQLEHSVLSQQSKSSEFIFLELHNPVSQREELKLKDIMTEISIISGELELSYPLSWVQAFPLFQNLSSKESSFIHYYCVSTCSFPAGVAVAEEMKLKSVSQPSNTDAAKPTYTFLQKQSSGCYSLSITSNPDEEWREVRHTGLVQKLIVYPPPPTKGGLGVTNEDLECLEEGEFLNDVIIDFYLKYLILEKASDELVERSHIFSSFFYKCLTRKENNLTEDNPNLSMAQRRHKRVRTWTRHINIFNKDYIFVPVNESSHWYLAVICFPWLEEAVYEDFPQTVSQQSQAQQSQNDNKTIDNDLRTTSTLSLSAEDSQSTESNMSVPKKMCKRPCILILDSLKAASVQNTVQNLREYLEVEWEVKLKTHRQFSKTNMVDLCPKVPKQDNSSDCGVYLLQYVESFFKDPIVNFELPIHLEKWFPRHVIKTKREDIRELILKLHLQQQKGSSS
In words: SENP7 protease inhibitors, SAR follow-up, biochemical, luminescence, set 2 (AID 588600). The assay is classed as functional.

Assay [11] addresses T5, Sentrin-specific protease 6 (Homo sapiens, UniProt Q9GZR1).
T5 sequence (Q9GZR1 whole entry): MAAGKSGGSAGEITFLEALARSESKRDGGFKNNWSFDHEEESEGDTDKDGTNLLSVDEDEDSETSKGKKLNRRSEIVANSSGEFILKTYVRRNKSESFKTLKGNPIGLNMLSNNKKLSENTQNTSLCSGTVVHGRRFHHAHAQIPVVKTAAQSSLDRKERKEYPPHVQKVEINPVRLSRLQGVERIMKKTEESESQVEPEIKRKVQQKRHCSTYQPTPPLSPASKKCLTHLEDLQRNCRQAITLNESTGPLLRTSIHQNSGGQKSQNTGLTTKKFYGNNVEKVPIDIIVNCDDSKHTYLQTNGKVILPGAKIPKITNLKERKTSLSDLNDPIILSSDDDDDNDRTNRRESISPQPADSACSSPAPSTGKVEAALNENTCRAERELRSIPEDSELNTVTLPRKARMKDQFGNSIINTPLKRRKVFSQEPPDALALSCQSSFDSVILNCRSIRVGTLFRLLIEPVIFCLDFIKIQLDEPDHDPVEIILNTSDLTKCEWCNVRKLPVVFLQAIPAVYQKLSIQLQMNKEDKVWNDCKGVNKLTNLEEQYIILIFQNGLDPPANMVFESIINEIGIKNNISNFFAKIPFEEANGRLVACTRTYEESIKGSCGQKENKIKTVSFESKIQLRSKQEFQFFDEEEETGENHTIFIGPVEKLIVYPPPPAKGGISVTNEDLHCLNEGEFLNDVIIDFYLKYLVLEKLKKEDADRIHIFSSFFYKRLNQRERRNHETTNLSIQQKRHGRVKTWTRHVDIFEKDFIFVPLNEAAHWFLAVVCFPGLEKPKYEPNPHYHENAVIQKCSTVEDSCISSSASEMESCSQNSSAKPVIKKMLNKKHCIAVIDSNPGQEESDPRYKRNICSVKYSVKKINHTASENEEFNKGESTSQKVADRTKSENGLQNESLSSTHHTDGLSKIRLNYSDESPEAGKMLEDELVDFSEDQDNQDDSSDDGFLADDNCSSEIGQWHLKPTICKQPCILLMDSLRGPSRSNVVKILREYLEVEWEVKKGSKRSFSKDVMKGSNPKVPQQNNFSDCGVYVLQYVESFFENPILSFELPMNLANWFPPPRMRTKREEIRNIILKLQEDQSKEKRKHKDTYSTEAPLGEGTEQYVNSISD
In words: SENP6 protease inhibitors, SAR follow-up, biochemical, luminescence, set 2 (AID 588598). The assay is classed as functional.

In a further assay the target is T6, Caspase-3 (Homo sapiens, UniProt P42574).
T6 sequence (P42574 whole entry): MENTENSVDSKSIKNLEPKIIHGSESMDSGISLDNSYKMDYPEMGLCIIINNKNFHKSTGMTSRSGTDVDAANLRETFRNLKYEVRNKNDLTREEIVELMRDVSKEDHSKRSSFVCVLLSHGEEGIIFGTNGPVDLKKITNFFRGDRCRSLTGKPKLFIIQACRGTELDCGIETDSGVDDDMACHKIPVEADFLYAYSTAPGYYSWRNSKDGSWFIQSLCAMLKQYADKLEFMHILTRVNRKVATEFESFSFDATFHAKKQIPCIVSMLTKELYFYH
In words: caspase-3 inhibitors as off-family protease, SAR follow-up, selectivity assay for SENP protease inhibitor project, biochemical, luminescence, set 2 (AID 588599). The class given is functional.

With `Cc1[nH]c2ccccc2c1C(=O)CSc1nc2ccccc2[nH]1`, the IC50 with CHO-K1 was > 66.2 µM (inactive); in assay [1] it was 12.5 µM (inactive); with H9c2 it was 32 µM (inactive); at Orexin receptor type 2 [2], > 88.8 µM (inactive); in [3], > 49.8 µM (inactive); in [4] it was 3.42 µM (active). For the same compound, the IC50 at Orexin receptor type 2 [5] was > 50 µM (inactive). The cytotoxic concentration (CC50) in [6] was > 50 µM (active).

Consider `Oc1c2nc3ccc(F)cc3c-2nc2n1CCS2`, for which the half-maximal activity concentration (AC50) is 37.3 µM (active) in the assay with Candida albicans [7], 4.72 µM (active) in the assay on Candida albicans [8] and 192 µM (active) in the assay with NIH3T3.

As to `CS(=O)(=O)c1ccc2nc(NC(=O)c3ccc(OC(F)(F)F)cc3)sc2c1`, the IC50 (in [9]; in assay [10]; in assay [11]; at Caspase-3) was > 99 µM (inactive) throughout.

The term IC50 denotes the point on the concentration scale where inhibition reaches its midpoint. The term CC50 denotes the concentration giving 50% cytotoxicity. What is called AC50 is the concentration giving half of the maximal activity seen.
